Series [1] is described as follows: Two-photon absorption cross-section by two-photon induced fluorescence method. The format is physicochemical. To be noted: water (containing 1% DMSO); excitation 800 nm, 820 nm, 840 nm; FIG. 35. An excerpt: Specifically, to confirm the fluorescence properties of the two-photon absorbing fluorophores under two-photon excitation, the inventors measured fluorescence spectra by two-photon excitation using a titanium:sapphire oscillator (Ti:sapphire oscillator), which was pumped by a frequency-doubled neodimium:yttrium orthovanadate laser (Nd:YVO4 laser; Verdi, Coherent) with an output power of 5.0 W. Output pulse energy was 40 nJ, and repetition rate was 380 kHz.
In addition, two-photon absorption cross-section values of each of Compounds 1 and 5 to 7 in dichloromethane solution, acetonitrile solution, and water (containing 1% DMSO) were measured, and the results are shown in FIGS. 28 and 29. Two-photon absorption cross-section values of each of Compounds 10 to 12 in a dichloromethane solution, an acetonitrile solution, and water (containing 1% DMSO) were measured, and the results are shown in FIG. 35. As a comparative compound, rhodamine B generally used as a fluorescent probe was used (two-photon absorption cross-section values, GM=300 (740 nm), 470 (760 nm) and 540 (780 nm), measured in an ethanol solution). Two-photon absorption cross-section values were measured by a two-photon induced fluorescence method (Fischer, A. et al. Applied Optics 1995, 34, 1989), 1 GM refers to 10^−50 cm^4 s photon^−1 molecule^−1.

Series [2] can be described thus: Absorbance spectra / molar extinction coefficients at the maximum absorption wavelength. The format is physicochemical. Conditions: water (containing 1% DMSO), acetonitrile, and dichloromethane; FIG. 33. The method, then:
Specifically, to confirm the absorbing properties of two-photon absorbing fluorophores, the inventors measured absorbance spectra for Compounds 1 to 9 at the concentration of 10 μM in HEPES buffer (containing 1% DMSO, pH 7.4) and water (containing 1% DMSO), contained in quartz cells with a light path length of 1 cm, and the results are respectively shown in the left and right graphs of FIG. 2. Absorbance spectra for Compounds 1 to 9 at the concentration of 10 μM in ethanol and acetonitrile were measured, and the results are respectively shown in the left and right graphs of FIG. 3. Absorbance spectra for Compounds 1 to 9 at the concentration of 10 μM in dimethylformamide and dichloromethane were measured, and the results are respectively shown in the left and right graphs of FIG. 4. Absorbance spectra for Compounds 1 to 9 at the concentration of 10 μM in cyclohexane were measured, and the result is shown in FIG. 5. Absorbance spectra for Compounds 10 to 12 at the concentration of 10 μM in water (a, containing 1% DMSO), acetonitrile (b), and dichloromethane (c) were measured, and the results are shown in FIG. 31. The absorbance spectra were measured using a HP 8453 UV/Vis spectrophotometer. […]

Series [3] can be described thus: Fluorescence quantum yield (reference rhodamine B). The format is physicochemical. Conditions: water (containing 1% DMSO); FIGS. 15 and 34. As to the method: Further, fluorescence quantum yields of Compounds 1 to 9 in dichloromethane, acetonitrile, and water (containing 1% DMSO) were measured, and the results are shown in FIG. 15. Fluorescence quantum yields of Compounds 10 to 12 in dichloromethane, acetonitrile, and water (containing 1% DMSO) were measured, and the results are shown in FIG. 34. As a reference compound, rhodamine B was used (fluorescence quantum yield, ΦF=0.6, measured in ethanol).

For series [4] the following is noted: reference compound; measured in ethanol; cited from earlier work.
For series [5] the following is noted: comparative compound, ethanol solution, cited from earlier work.
Series [6] is described as follows: Fluorescence spectra / fluorescence intensities in solution. The format is physicochemical. Conditions: 1 μM in water (containing 1% DMSO); excitation at the maximum absorption wavelength; FIG. 40. As to the method: 10. […] 11. […] 12. […] 32. All fluorescence spectra were measured at the […] (FIG. 14). The fluorescence spectra were measured using a Photon Technical International Fluorescence System.
13(a). […] 13 (b, left) and FIG. 13 (b, right). Referring to FIGS. 9 and 13, it can be confirmed that fluorescence intensities of the two-photon absorbing fluorophores (particularly, Compounds 2 to 8) of the present invention in HEPES buffer (containing 1% DMSO, pH 7.4) and water (containing 1% DMSO) are higher than those of the conventional acedan (Compound 1).
In addition, to compare the fluorescence intensities of the compounds in aqueous solution according to a structural change, fluorescence intensities of Compounds 1, 5, and 13 to 18 at the concentration of 1 μM in water (containing 1% DMSO) were compared, and the results are shown in FIG. 40. The fluorescence intensities were measured through excitation of each compound at the maximum absorption wavelength. […] It can be confirmed that, as the degrees of hydrogen bonding of water molecule to the nitrogen atom in Compounds 13 to 17 are reduced, the fluorescence intensities increase.

Where two headings read alike, the source gives them in different places.

In the case of `O=C1c2cccc3c(NC4CCC(O)CC4)ccc(c23)C(=O)N1CCO` (centres unmarked) [Compound 10, 6-(4-hydroxycyclohexylamino)-2-(2-hydroxyethyl)-1H-benzo[de]isoquinoline-1,3(2H)-dione], the “two-photon absorption cross-section value” in series [1] is “higher than those of the conventional Compounds 11 and 12”. Further, in series [2], the molar extinction coefficients result was “higher than those of the conventional Compound 11 (Formula 11) and Compound 12 (Formula 12)”. Besides, in series [3], the fluorescence quantum yield result was “higher than those of the conventional Compounds 11 and 12”. For `CCN(CC)c1ccc2c(-c3ccccc3C(=O)O)c3ccc(=[N+](CC)CC)cc-3oc2c1.[Cl-]` [rhodamine B], the “fluorescence quantum yield, ΦF” value in series [4] is listed as 0.6. Besides, the “two-photon absorption cross-section value” in series [5] (740 nm) is given as 300 GM; in series [5] (760 nm) it was 470 GM; in series [5] (780 nm), 540 GM. Consider `CC(=O)c1ccc2cc(N3CCCC3)ccc2c1` [Compound 18], for which the fluorescence intensities result in series [6] is given as “increase of fluorescence intensity”.

In the case of `CC(=O)c1ccc2cc(N(C)C3CCC(O)CC3)ccc2c1` (centres unmarked) [Compound 9, 1-(6-((4-hydroxycyclohexyl)(methyl)amino)naphthalen-2-yl)ethanone], the melting point was in the range of 192 to 194 °C. As to `CC(=O)c1ccc2cc(NC(C)C)ccc2c1` [Compound 3, 1-(6-(isopropylamino)naphthalen-2-yl)ethanone], the melting point lay within 112 to 114 °C.

Compound `CNc1ccc2cc(C(C)=O)ccc2c1` [Compound 4, 1-(6-(methylamino)naphthalen-2-yl)ethanone] showed a melting point of 182 °C. Same read-out and setting: under `CC(=O)c1ccc2cc(N3CCOCC3)ccc2c1` [Compound 8, 1-(6-morpholinonaphthalen-2-yl)ethanone] stands 149 to 151 °C. The same measure, in the same setting: under `CC(=O)c1ccc2cc(N3C4CCC3CC4)ccc2c1` stands 118 to 120 °C; under `CC(=O)c1ccc2cc(NC3CCC(O)CC3)ccc2c1` (centres unmarked) [Compound 5, 1-(6-(4-hydroxycyclohexylamino)naphthalen-2-yl)ethanone], 186 to 188 °C.
